According to patent US20130004590A1, “ZINC OXIDE/ACID CONTAINING COMPOSITIONS AND METHODS FOR TREATING AND/OR PREVENTING ENZYMATIC IRRITATION” (priority 2011, published 2013):
Where two headings read alike, the source gives them in different places.

What was measured:
trypsin [1] = test: EnzChek protease assay: trypsin inhibition by mixtures of talc with divalent cation salts; format: biochemical; conditions: for Hypothetically calculated additive value of salt and Talc, trypsin inhibition activities (%): Table 3, salt alone plus talc alone (8.55%)
Experimental: The objective of the following experiment was to determine whether and to what extent adding a divalent cation to talc inhibited trypsin activity in an in vitro assay. The inhibition of trypsin-induced cleavage of a fluorescent casein peptide was measured using the EnzChek™ protease assay kit, following manufacturer's instructions (EnzChek™ Protease Assay Kits Product Information, Revised; Molecular Probes, Eugene Oreg.). […] Trypsin working solution (Sigma, St. Louis, Mo., unit/mL) was prepared in digestion buffer provided in the assay kit. Stock solution of BODIPY FL casein (trypsin substrate, mg/mL) was prepared by adding 0.2 mL to the substrate vials (provided in kit), and the final substrate working solution (10 microgram/mL) was prepared by dilution in digestion buffer (pH 7.8). Following incubation of the trypsin, with or without the test materials, with the BODIPY fluorescent casein substrate, at room temperature for one hour, fluorescence was measured (excitation 485 nm/emission 530 nm) using a SpectraMax microtiter plate reader (Molecular Devices Corporation, Sunnyvale, Calif.) and Softmax Pro software (Molecular Devices Corporation). Each experiment was performed in three replicates.

trypsin [2] = test: EnzChek protease assay: trypsin inhibition by zinc oxide/acid mixtures and formulations; format: biochemical; conditions: text b137, on Table 5
Experimental: Each experiment was performed in three replicates.
For preparations, samples were diluted in 1×PBS at 1:10 ratio and subjected to centrifugation at 13,200 rpm for 1 min using Eppendorf Centrifuge (Model 5415D, Eppendorf AG, Hamburg, Germany) to remove the solid formulation ingredients. The supernatants (50 μl) were used for trypsin inhibitory activity analyses as described above. For preparations, samples were diluted in 10, or 20 or 40% ethanol and subjected to centrifugation at 13,200 rpm for 1 min using Eppendorf Centrifuge (Model 5415D, Eppendorf AG, Hamburg, Germany) to remove the solid formulation ingredients. The supernatants (50 μl) were used for trypsin inhibition assay. Possible effects of ethanol solution (10, 20 or 40% ethanol) on trypsin inhibition activity were tested in the same study and found no significant impact.
For the above study, the results are an average of three independent experiments, wherein the samples, which were diluted at 1:10 ratio in 1×PBS solutions containing 10%, 20% or 40% ethanol, were tested in triplicates. The results are from an average of all conditions at the same dilution.
For the currently available product (i.e., Baby Paste 5.0, Mendelson Pharmaceuticals LLC, Mountainside, N.J.), the results are an average of a single study: sample diluted at 1:10 ratio, in 1×PBS solutions containing 10%, 20% or 40% ethanol, was tested in triplicate. […]

[3] = Experimental: The objective of the following experiment was to determine whether and to what extent adding an acid to a formulation containing zinc oxide had on inhibition of trypsin activity in an in vitro assay. The inhibition of trypsin-induced cleavage of a fluorescent casein peptide was measured using the EnzChek™ protease assay kit, following manufacturer's instructions (EnzChek™ Protease Assay Kits Product Information, Revised; Molecular Probes, Eugene Oreg.). Briefly, mixtures of zinc oxide and acid at different concentrations were prepared in 1×PBS (pH 7.4) and their pH was recorded as listed in the Tables 5-8. Trypsin working solution (Sigma, St. Louis, Mo., unit/mL) was prepared in digestion buffer provided in the assay kit. Stock solution of BODIPY FL casein (trypsin substrate, mg/mL) was prepared by adding 0.2 mL to the substrate vials (provided in kit), and the final substrate working solution (10 microgram/mL) was prepared by dilution in digestion buffer (pH 7.8). Following incubation of the trypsin, with or without the test materials (50 μl), with the BODIPY fluorescent casein substrate, at room temperature for one hour, fluorescence was measured (excitation 485 nm/emission 530 nm) using a SpectraMax microtiter plate reader (Molecular Devices Corporation, Sunnyvale, Calif.) and Softmax Pro software (Molecular Devices Corporation). Each experiment was performed in three replicates.

Structure (SMILES): [Ca+2].[Cl-].[Cl-] [Calcium chloride]
- Hypothetically calculated additive value of salt and Talc, trypsin inhibition activities (%) (trypsin [1]): 26.50%

Structure (SMILES): [Cl-].[Cl-].[Zn+2] [Zinc chloride]
- Hypothetically calculated additive value of salt and Talc, trypsin inhibition activities (%) (trypsin [1]): 89.62%

Structure (SMILES): CC(=O)[O-].CC(=O)[O-].O.[Ca+2] [Calcium acetate monohydrate]
- Hypothetically calculated additive value of salt and Talc, trypsin inhibition activities (%) (trypsin [1]): 23.86%

Structure (SMILES): [O]=[Zn] [ZnO, zinc oxide]
- protease activity of zinc oxide, in words (trypsin [2]): minimal protease activity
- pH ([3]; 0.1% ZnO, 0.01% acetic acid in 1x PBS): 7.28
- pH ([3]; 0.1% ZnO, 0.05% acetic acid in 1x PBS): 6.03
- pH ([3]; 0.1% ZnO, No acetic acid in 1x PBS): 7.61
- pH ([3]; 1% ZnO, 0.01% acetic acid in 1x PBS): 7.85
- pH ([3]; 1% ZnO, 0.05% acetic acid in 1x PBS): 6.08
- pH ([3]; 1% ZnO, No acetic acid in 1x PBS): 8.07

Structure (SMILES): CC(=O)[O-].CC(=O)[O-].O.O.O.O.[Mg+2] [Magnesium acetate tetrahydrate]
- Hypothetically calculated additive value of salt and Talc, trypsin inhibition activities (%) (trypsin [1]): 9.38%

Structure (SMILES): O.O.O.O.[Cl][Fe][Cl] [Iron (II) chloride tetrahydrate]
- Hypothetically calculated additive value of salt and Talc, trypsin inhibition activities (%) (trypsin [1]): 73.62%

Structure (SMILES): [Cl-].[Cl-].[Mg+2] [Magnesium chloride]
- trypsin inhibitory activity, alone, in words (trypsin [1]): moderate to low levels
- Hypothetically calculated additive value of salt and Talc, trypsin inhibition activities (%) (trypsin [1]): 13.30%

Structure (SMILES): CC(=O)O [acetic acid]
- pH ([3]; No ZnO, 0.01% acetic acid in 1x PBS): 6.84
- pH ([3]; No ZnO, 0.05% acetic acid in 1x PBS): 4.75

Structure (SMILES): CC(=O)[O-].CC(=O)[O-].[Zn+2] [Zinc acetate dihydrate]
- Hypothetically calculated additive value of salt and Talc, trypsin inhibition activities (%) (trypsin [1]): 71.39%
